Assay results published in publication PMC12040169 (PLOS Biology, 2025).

Assay: in vitro
Conditions: human, hela cells, % viability

Row | SMILES | viability at 28.5 h, 10 µM [%]
1 | O=C(O)CCC(=O)N1CCN(C(=O)c2ccco2)CC1 [CBK286533] | 102
2 | Nc1cc(-c2ccco2)nn(Cc2c(F)cccc2Cl)c1=O [CBK282881] | 86.1
3 | CCN1CCC2(CCC1=O)CN(Cc1noc(CC(C)C)n1)CCN2C (centres unmarked) [CBK306971] | 90.5
4 | CCCCC12CN3CCN(CC(C3)/C1=N\N=C1/C3CN4CCN(C3)CC1(CCCC)C4)C2 [CBK264981] | 104
5 | O=C(O)c1ccc(OCc2n[nH]c(=S)n2-c2ccc(Cl)cc2)cc1 [CBK014317] | 102
6 | O=c1n(C(c2ccccc2)c2ccccc2)ccn1S(=O)(=O)c1ccc(Oc2ccccc2)cc1 [CBK106624] | 89.5
7 | C(#Cc1ccc(-c2cc[nH]n2)s1)c1ccccc1 [CBK023413] | 118
8 | CSc1nsc(SCC(=O)Nc2cccc(NC(C)=O)c2)n1 [CBK269833] | 93.2
9 | CCCC/C=C/c1cnc(N)c(-c2ccc(C(=O)NCCO)cc2)n1 [CBK064141] | 106
10 | CC(C(=O)NC1(C#N)CCCCC1)N1CCOC(Cn2cccn2)C1 (centres unmarked) [CBK305337] | 88.9
11 | O=C(Cc1cccc2ccccc12)Nc1ccccc1C(=O)O [CBK266325] | 100
12 | c1ccc(C(Nc2cnccn2)C2CC2)cc1 (centres unmarked) [CBK304145] | 106
13 | O=C(O)CCCN1C(=O)C(O)=C(C(=O)c2ccc([N+](=O)[O-])cc2)C1c1ccccc1F (centres unmarked) [CBK263810] | 97.8
14 | Cc1c(O)cccc1Nc1cc(-c2cccc(N(C)C)c2)ncn1 [CBK036995] | 94.3
15 | O=C(COc1ccc(Cl)cc1Br)NNC(=O)c1ccc(O)cc1 [CBK262950] | 95.5
16 | c1cc(C2CCCCN2Cc2ccc3[nH]ccc3c2)nc(Nc2nccs2)n1 (centres unmarked) [CBK286109] | 83.6
17 | Nc1nc(SCC(=O)N2CCC(c3noc4ccc(F)cc34)CC2)n[nH]1 [CBK267326] | 91.4
18 | C[C@@H]1CN(C(=O)c2nccc3ccccc23)C[C@H](C)O1 [CBK200233] | 92.8
19 | O=C(C1=Cc2ccccc2OC1)N1CCn2cc(C(F)(F)F)nc2C1 [CBK283913] | 103
20 | Cn1cnnc1Sc1cc(N2CCN(S(=O)(=O)c3ccc(Cl)c(Cl)c3)CC2)ccc1[N+](=O)[O-] [CBK266618] | 98.3

Row | SMILES | viability at 28.5 h, 10 µM [%]
21 | COC(=O)c1ccc(COc2nc3ccccc3nc2/C=C/c2cccc([N+](=O)[O-])c2)cc1 [CBK268776] | 112
22 | Cc1cc2nn(-c3ccccc3)nc2cc1NC(=O)c1ccc(-c2cccc([N+](=O)[O-])c2)o1 [CBK263859] | 99.6
23 | CCNC(=O)N(C)c1c(CC)nc2c(OCc3ccc(S(C)(=O)=O)cc3)cccn12 [CBK147797] | 93.4
24 | Fc1ccc(-n2cc(-c3cccnc3)nn2)cc1F [CBK113055] | 89.3
25 | O=C(N/N=C/c1ccc(O)cc1)C(=O)N/N=C/c1ccc(O)cc1 [CBK261625] | 88.7
26 | CC(=O)Nc1ccc(S(=O)(=O)NNC(=O)c2cccc(Cl)c2)cc1 [CBK261694] | 89.4
27 | Cc1cccc(-n2ncc3c2ncn2c(COc4ccccc4C)nnc32)c1 [CBK265567] | 86.2
28 | COc1ccc(C)cc1C1(CNC(=O)N2CCC(C)(O)C2)CCOCC1 (centres unmarked) [CBK305452] | 102
29 | COc1ccc([C@@]23CC[C@@H](NC(=O)c4ccc(Br)c(C)c4)C[C@@H]2N(C)CC3)cc1OC [CBK076656T] | 81.2
30 | Cc1ccc2c(c1)c(NS(C)(=O)=O)nn2Cc1ccc(C#N)cc1 [CBK048643] | 94.2
31 | Cn1cc(CN2CCC(c3cncc(-c4cccc(C(F)(F)F)c4)n3)CC2)cn1 [CBK286150] | 78.4
32 | COc1ccc(C2CC(c3nc4ccccc4[nH]3)=NN2C(=O)CCN2CCCCC2)cc1 (centres unmarked) [CBK267673] | 99.8
33 | CCCCn1ncnc1-c1cnc2ccnn2c1C [CBK307305] | 114
34 | CCc1noc(CN2CCCC(c3ccc(C(=O)O)cc3)C2)n1 (centres unmarked) [CBK307102] | 105
35 | COc1ccc2cc(C(=O)N3CCC(c4ccncc4)CC3)[nH]c2c1 [CBK283799] | 86.4
36 | Cc1ccc(CNC(=O)Cc2ccc(-c3ccc(CN4CCC(C)CC4)cc3)nc2)cc1F [CBK158402] | 97.4
37 | O=C1CCC[C@]2(CN(C(=O)C3CC3)C[C@H]2c2ccccc2F)N1 [CBK283357] | 106
38 | O=C(c1ccccc1F)N1CCC(O)(c2ccc(F)cc2)CC1 [CBK281943] | 80.9
39 | NC(=O)CN1CCCN(c2ccnc(OCCN3CCOCC3)n2)CC1 [CBK083804] | 89.9
40 | CN(Cc1nc2c(s1)CCCC2)C(=O)COc1ccc2nncn2n1 [CBK306758] | 98.9

Row | SMILES | viability at 28.5 h, 10 µM [%]
41 | CN1CCN(Cc2oc(CO)cc(=O)c2O)CC1 [CBK288394] | 89.6
42 | Cc1ccc2nc(O)cc(C(=O)OCC(=O)c3cccc([N+](=O)[O-])c3)c2c1 [CBK265115] | 94.1
43 | Cc1nc2ccccc2n1CCNC(=O)c1ccccc1SCc1ccc(C#N)cc1 [CBK297082] | 106
44 | Cc1ccc(OCC(=O)O/N=C(\N)Cc2ccc([N+](=O)[O-])cc2)c(C)c1 [CBK263102] | 101
45 | O=C1OC(c2ccc(N3C(=O)c4cccc5cccc(c45)C3=O)cc2)(c2ccc(N3C(=O)c4cccc5cccc(c45)C3=O)cc2)c2ccccc21 [CBK261845] | 95.3
46 | COc1ccc(OC(=O)N2CCC3(CC2)CC(=O)N(Cc2ccc(S(C)(=O)=O)cc2)C3=O)cc1 [CBK155952] | 99.3
47 | COc1ccc(Cc2nc(CC3CCCOC3)n(CC(F)(F)F)n2)cc1 (centres unmarked) [CBK307140] | 112
48 | O=C(Nc1ccncc1)c1c(O)n(Cc2ccccc2)c2ccccc2c1=O [CBK291222] | 92
49 | CN1CCCC(C(=O)Nc2cnc(-c3cccc(C(F)(F)F)c3)c(-c3cccnc3)n2)C1 (centres unmarked) [CBK036787] | 87.2
50 | COc1ccc(C(=O)N2CCC3(CCN(Cc4ccc(Cl)c(Cl)c4)C3)C2)cc1OC (centres unmarked) [CBK132150] | 97.3
51 | COc1cc(NC(=O)c2ccc3c(c2)C(=O)N(Cc2ccccc2)C3=O)c(C(=O)O)cc1OC [CBK266544] | 106
52 | Cc1cc(-c2nnc(NCc3ccnn3C)o2)c(C)o1 [CBK306446] | 84.6
53 | COc1cc(CNC(=O)N2CCC(C(=O)O)CC2)cc(OC)c1OC [CBK161401] | 81.5
54 | CC(=O)c1c(C)oc(C)c1C(C)=O [CBK012535] | 88.2
55 | CC1(C)CC(=O)C=C(C(=O)NCc2cccs2)O1 [CBK153292] | 97.5
56 | O=C(O)c1ccc(NS(=O)(=O)c2cc(Cl)sc2Cl)cc1 [CBK034046] | 99.9
57 | O=C(c1ccc(-c2ccoc2)nc1)N1CCCC1 [CBK156284] | 84.6
58 | CCOC(=O)c1ccccc1NS(=O)(=O)c1ccc(C)c([N+](=O)[O-])c1 [CBK045451] | 88.7
59 | CC1CN(CCNCc2cn(C)nc2-c2cccnc2)CC(C)O1 (centres unmarked) [CBK305151] | 110
60 | CC(=O)NC1(c2ccc(F)cc2)CCN(C(=O)C(C)C)CC1 [CBK283491] | 103

Same assay, conditions: human, hela cells, % viability, bulk resorufin, single well

Row | SMILES | viability at 28.5 h, 10 µM [%]
61 | CCOC(=O)C1(c2ccccc2)CCN(C(=O)CCC(=O)O)CC1 [CBK132197] | 94.7
62 | COC(=O)CC1(CC(=O)OC)C(=O)N(C)C(=O)N(C)C1=O [CBK268554] | 98.5
